According to patent publication US20090324513A1, “Process for Producing Chlorinated Sucrose” (Pharmed Medicare Private Limited, priority 2004, published 2009):
“And” between values parts separate entries of the source, which are not always exact repeats. Identical values can stand only once. Values belong to the molecule of their own block, whether it stands above or below them.

How the values were obtained:
[1] = Particle size evaluated in Microtrac-X100 equipment; assay type: physicochemical; details: for Particle size: other batches, ethyl acetate crystallization
Method: The particle size was evaluated in Microtrac—X100 equipment.

[2] = Solubility test of product batch; assay type: physicochemical; details: result against specification: Soluble in ethanol and water. Slightly soluble in ethyl acetate

Structure (SMILES): OC[C@H]1O[C@H](O[C@]2(CCl)O[C@H](CCl)[C@@H](O)[C@@H]2O)[C@H](O)[C@@H](O)[C@H]1Cl [PP 02]
Particle size ([1]; 90% of particles): 90% ≦ 9.125 microns

Structure (SMILES): OC[C@H]1O[C@H](O[C@]2(CCl)O[C@H](CCl)[C@@H](O)[C@@H]2O)[C@H](O)[C@@H](O)[C@H]1Cl [PP 03]
Particle size ([1]; 90% of particles): 90% ≦ 9.165 microns

Structure (SMILES): OC[C@H]1O[C@H](O[C@]2(CCl)O[C@H](CCl)[C@@H](O)[C@@H]2O)[C@H](O)[C@@H](O)[C@H]1Cl [PRO 01]
Particle size ([1]; 90% of particles): 90% ≦ 9.035 microns

More lines, now with the values ahead:

Particle size ([1]; 90% of particles): 90% ≦ 9.183 microns
Structure (SMILES): OC[C@H]1O[C@H](O[C@]2(CCl)O[C@H](CCl)[C@@H](O)[C@@H]2O)[C@H](O)[C@@H](O)[C@H]1Cl [PRO 05]

Solubility [2]: Complies | individual crystal particle size at percentage ([1]; 10% of particles): 0.956 microns | individual crystal particle size at percentage ([1]; 20% of particles): 1.541 microns | individual crystal particle size at percentage ([1]; 30% of particles): 2.093 microns | individual crystal particle size at percentage ([1]; 40% of particles): 2.605 microns | individual crystal particle size at percentage ([1]; 50% of particles): 3.274 microns | individual crystal particle size at percentage ([1]; 60% of particles): 4.236 microns | individual crystal particle size at percentage ([1]; 70% of particles): 5.311 microns | individual crystal particle size at percentage ([1]; 80% of particles): 6.615 microns | individual crystal particle size at percentage ([1]; 90% of particles, listed as crystallized product): below 9.185 microns and 9.185 microns | individual crystal particle size at percentage ([1]; 95% of particles): 11.51 microns
Structure (SMILES): OC[C@H]1O[C@@H](O[C@]2(CCl)O[C@H](CCl)[C@@H](O)[C@@H]2O)[C@H](O)[C@@H](O)[C@H]1Cl [conventional crystallization batch, 1′,6′-Dichloro-1′,6′-Dideoxy-â-D-Fructo-Furanosyl-4-Chloro-4-Deoxy-â-D-Galactopyranoside]
